From US20170283850A1, “METHODS OF DETECTING ADENOSINE DEAMINASE DEFICIENCY” (CHILDREN'S HOSPITAL OF EASTERN ONTARIO, priority 2014, published 2017)
Each block holds one compound with its values, some of them ahead of it.

Experiments:
[1] = Stability of purine metabolites in DBS on storage; assay type: physicochemical; conditions: 5 and 25 μmol/L in DBS, stored 4.5 weeks at −20° C., 23° C. (ambient) and 30° C.
Description: Stability of purine metabolites in DBS was assessed by storing spiked samples (5 and 25 μmol/L) at various temperatures (ambient, −20° C. and 30° C.). Analysis was carried out as described over a period of […].
Analysis of DBS specimens containing Ado, dAdo, Gua and dGua at 5 and 25 μmol/L stored for a period of 4.5 weeks at −20° C., 23° C.

[2] = Loss of standard purines added to whole blood (residual ADA activity); assay type: in vitro ADME; conditions: whole blood without EHNA
Description: DBS calibrators could not be prepared in this work due to residual ADA activity that persisted after traditional enzyme deactivation treatments such as freeze-thawing or heating whole blood at 45° C. for 24 hours. EHNA, a specific ADA inhibitor, was added to whole blood to prevent the deamination of Ado and dAdo to inosine and deoxyinosine, respectively. Purine metabolites were extracted from 3.2 mm dried calibrators or DBS specimens using an aqueous solution of 70% methanol (v/v) containing isotope labeled IS. This solution was added directly into a 96-well plate containing samples and incubated at 37° C. with shaking (650 rpm). The extraction yield reached its maximum at 15 minutes or more. The following experiments therefore were performed at 37° C. for 15 min. Purine metabolites were stable for at least 24 h when stored in a tightly sealed vial at 8° C.
SCID newborn screening began in the United States following the recent addition of this condition to the uniform panel as recommended by the US Department of Health and Human Services. In Canada, Ontario was the first jurisdiction to screen for SCID, which began in August, 2013. TREC analysis is the primary screening method and can be achieved by real-time PCR using neonatal DBS, the sample of choice for newborn screening. However, TREC analysis is inadequate to provide additional information regarding the etiology of SCID. […]

ADA = ADA (Homo sapiens, UniProt P00813); conditions: DBS eluate, substrate 1.0 μmol/L, 37° C., 30 minutes or more
Chain of ADA (P00813 whole entry): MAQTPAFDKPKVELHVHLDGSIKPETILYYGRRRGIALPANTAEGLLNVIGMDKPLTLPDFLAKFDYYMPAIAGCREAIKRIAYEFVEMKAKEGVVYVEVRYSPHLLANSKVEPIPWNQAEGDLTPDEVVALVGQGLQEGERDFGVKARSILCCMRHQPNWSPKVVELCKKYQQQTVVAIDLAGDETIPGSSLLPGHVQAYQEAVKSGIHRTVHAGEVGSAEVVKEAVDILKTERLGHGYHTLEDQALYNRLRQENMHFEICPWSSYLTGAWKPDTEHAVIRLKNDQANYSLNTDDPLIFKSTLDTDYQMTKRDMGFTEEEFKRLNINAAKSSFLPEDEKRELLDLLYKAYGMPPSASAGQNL
Description: A 3.2 mm DBS sample was punched into the designated well of a 96 multi-well filter plate (Pall Corp, Ann Arbor, Mich., USA) and eluted using 120 μl of water by shaking at 650 rpm (24° C. for 30 min). After filtration under vacuum, two 40 μl portions of the eluate were dispensed into two 2 ml microtubes (Axygen, Union City, Calif., USA) and labeled Test and Blank. To the tube labeled Test, 10 μl of 10 μmol/l of EHNA in water were added whereas water (10 μl) was added to Blank tubes. The tubes were vortexed for 10 sec and allowed to sit at room temperature for 5 min. To each tube, 50 μl 2 mmol/L ammonium acetate containing 1 μmol/L of ^13C10, ^15N5 Ado and ^15N5 dAdo were added as ADA substrates. The mixture was incubated at 37° C. with shaking (20 rpm). After 30 minutes, the enzymatic reaction was stopped by adding 400 μl of acetonitrile containing ^13C5 Ado (0.125 μmol/L) and the mixture was vortexed for 30 sec. […] The enzyme activity expressed as pmol of residual substrate per DBS was measured by calculating the difference of ^13C10, ^15N5 Ado and ^15N5 dAdo in Test and Blank after the enzymatic reaction.
ADA activity assay conditions were determined by monitoring the enzyme reaction (up to 60 min), substrate concentration (1-10 μmol/L), EHNA concentration (2.5-160 NM) and incubation temperature (30-60° C.).

Compound: Nc1nc2c(ncn2[C@H]2C[C@H](O)[C@@H](CO)O2)c(=O)[nH]1 [dGua, deoxyguanosine]
Stability in DBS specimens [1]: stable

Compound: Nc1ncnc2c1ncn2[C@@H]1O[C@H](CO)[C@@H](O)[C@H]1O [Ado, adenosine]
Stability in DBS specimens [1]: stable
Stability on adding standard purines to whole blood [2]: immediate loss

Compound: erythro-9-(2-hydroxy-3-nonyl) adenine [EHNA]
Optimum EHNA concentration for ADA activity measurements (ADA): ≥ 10 µM

Further lines, results first:

Stability in DBS specimens [1]: stable
Compound: Nc1nc2c(ncn2[C@@H]2O[C@H](CO)[C@@H](O)[C@H]2O)c(=O)[nH]1 [Gua, guanosine]

Stability in DBS specimens [1]: stable
Stability on adding standard purines to whole blood [2]: immediate loss
Compound: Nc1ncnc2c1ncn2[C@H]1C[C@H](O)[C@@H](CO)O1 [dAdo, deoxyadenosine]
